These results are taken from paper PMC10878397, “Development of Potent Dual BET/HDAC Inhibitors via Pharmacophore Merging and Structure-Guided Optimization” (ACS Chemical Biology, 2024).

Structures are written as SMILES.

In assay [1] the test system is HEXIM1 mRNA in PaTu8988T cells. Nature of the assay: Quantitative RT-PCR of BET-inhibition biomarker. It counts as cell-based. The settings on record: 6 h, 1 μΜ compound. As for the experimental part:
Total RNA was extracted from cell culture using the Maxwell RSC simply RNA Cells Kit (Promega) according to the manufacturer’s protocol. cDNA was synthesized using PrimeScript Reverse Transcriptase (TakaRa) and amplified using homemade PCR master mix. The amplicon was detected by EvaGreen Dye using a LightCycler 480 instrument (Roche). PCR conditions were 5 min at 95 °C, followed by 45 cycles of 95 °C for 10 s, 59 °C for 10 s, and 72 °C for 20 s. The relative gene expression levels were normalized to GUSB and calculated using the 2^–ΔΔC^t method.

The target in another assay is T1, HDAC9 (Homo sapiens, UniProt Q9UKV0).
T1 construct: purchased Reaction Biology
Put plainly: HDAC selectivity profile (Reaction Biology). It counts as biochemical. To be noted: no inhibitor control as 100%, read-out: % Enzyme activity HDAC9. The procedure:
(§1) The reactions were performed by Reaction Biology using a protease-coupled assay with fluorogenic substrates where, after deacetylation by the HDAC and subsequent proteolytic digest, the free fluorophore 7-amino-4-methyl coumarin (AMC) can be quantified.[60] The following substrates were used for activity assays: HDACs 1, 2, 3, and 6: fluorogenic tetrapeptide from p53 residues 379–382 (RHKK(Ac) AMC); HDACs 4, 5, 7, 9, and 11: fluorogenic HDAC class2a substrate (trifluoroacetyl lysine); HDAC8: twice acetylated fluorogenic tetrapeptide from p53 residues 379–382 (RHK(Ac) K(Ac) AMC); HDAC10: Ac-spermidine-AMC. Data are given as % residual activity compared with the uninhibited control reaction.

The next assay deals with T2, HDAC11 (Homo sapiens, UniProt Q96DB2).
T2 construct: purchased Reaction Biology
T2 sequence (Q96DB2 1-347): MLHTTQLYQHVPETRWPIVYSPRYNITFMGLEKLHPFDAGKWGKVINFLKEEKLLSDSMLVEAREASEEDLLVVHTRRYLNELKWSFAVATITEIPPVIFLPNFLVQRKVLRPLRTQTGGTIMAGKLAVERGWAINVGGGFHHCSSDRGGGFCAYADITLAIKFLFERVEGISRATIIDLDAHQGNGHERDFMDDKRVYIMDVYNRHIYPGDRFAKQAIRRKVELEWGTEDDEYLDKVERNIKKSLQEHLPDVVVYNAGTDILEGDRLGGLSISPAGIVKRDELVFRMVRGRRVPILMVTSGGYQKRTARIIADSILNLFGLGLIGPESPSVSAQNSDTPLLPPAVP
Put plainly: HDAC selectivity profile (Reaction Biology). It is filed as biochemical. To be noted: no inhibitor control as 100%. The procedure: as §1

The target of a further assay is T3, HDAC8 (Homo sapiens, UniProt Q9BY41).
T3 construct: purchased Reaction Biology
Put plainly: HDAC selectivity profile (Reaction Biology). It is filed as biochemical. The settings on record: no inhibitor control as 100%, read-out: % Enzyme activity HDAC8. The procedure:
as §1

The next assay concerns the target T4, HDAC5 (Homo sapiens, UniProt Q9UQL6).
T4 construct: purchased Reaction Biology
Put plainly: HDAC selectivity profile (Reaction Biology). The settings on record: no inhibitor control as 100%, read-out: % Enzyme activity HDAC5. It counts as biochemical. As for the experimental part: as §1

The target of another assay is T5, HDAC7 (Homo sapiens, UniProt Q8WUI4).
T5 construct: purchased Reaction Biology
Nature of the assay: HDAC selectivity profile (Reaction Biology). It counts as biochemical. The settings on record: no inhibitor control as 100%, read-out: % Enzyme activity HDAC7. The procedure: as §1

In the next assay the target is T6, HDAC6 (Homo sapiens, UniProt Q9UBN7).
T6 construct: purchased Reaction Biology
Nature of the assay: HDAC selectivity profile (Reaction Biology). It is filed as biochemical. To be noted: no inhibitor control as 100%, read-out: % Enzyme activity HDAC6. As for the experimental part:
as §1

Assay [2] deals with zinc-dependent HDACs (HDAC1–11). Nature of the assay: HDAC selectivity profile, whole panel. It is filed as biochemical, human. To be noted: 1 and 10 μM. The procedure: as §1
The target of the next assay is HDAC2 (Homo sapiens, UniProt Q92769). Put plainly: HDAC selectivity profile (Reaction Biology). To be noted: no inhibitor control as 100%, read-out: % Enzyme activity HDAC2. The arrangement: purchased Reaction Biology. It counts as biochemical. The procedure:
as §1

For another assay, the target named is HDAC1 (Homo sapiens, UniProt Q13547). Put plainly: HDAC selectivity profile (Reaction Biology). The arrangement: purchased Reaction Biology. To be noted: no inhibitor control as 100%, read-out: % Enzyme activity HDAC1. It is filed as biochemical. The procedure: as §1
A further assay addresses HDAC3 (Homo sapiens, UniProt O15379). Put plainly: HDAC selectivity profile (Reaction Biology). To be noted: no inhibitor control as 100%. It is filed as biochemical. The arrangement: purchased Reaction Biology. As for the experimental part:
as §1

HDAC3, sequence (O15379 whole entry): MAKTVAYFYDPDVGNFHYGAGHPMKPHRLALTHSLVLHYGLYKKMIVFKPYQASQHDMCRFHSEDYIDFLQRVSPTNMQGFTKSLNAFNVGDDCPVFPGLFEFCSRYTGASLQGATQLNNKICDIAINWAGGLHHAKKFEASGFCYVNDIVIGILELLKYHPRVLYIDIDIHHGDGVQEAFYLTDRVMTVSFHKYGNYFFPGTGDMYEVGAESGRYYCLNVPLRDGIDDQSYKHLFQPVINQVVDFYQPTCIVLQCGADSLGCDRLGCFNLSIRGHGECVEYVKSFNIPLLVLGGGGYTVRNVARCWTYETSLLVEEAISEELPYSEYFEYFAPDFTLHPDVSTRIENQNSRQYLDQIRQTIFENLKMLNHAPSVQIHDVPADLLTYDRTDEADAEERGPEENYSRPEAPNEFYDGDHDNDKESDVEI
HDAC3, sequence (Q9Y618 395-489 partner limits assumed): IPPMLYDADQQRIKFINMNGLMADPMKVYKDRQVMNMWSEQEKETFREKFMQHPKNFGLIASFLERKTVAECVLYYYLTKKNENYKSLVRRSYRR
T1 sequence (Q9UKV0 whole entry): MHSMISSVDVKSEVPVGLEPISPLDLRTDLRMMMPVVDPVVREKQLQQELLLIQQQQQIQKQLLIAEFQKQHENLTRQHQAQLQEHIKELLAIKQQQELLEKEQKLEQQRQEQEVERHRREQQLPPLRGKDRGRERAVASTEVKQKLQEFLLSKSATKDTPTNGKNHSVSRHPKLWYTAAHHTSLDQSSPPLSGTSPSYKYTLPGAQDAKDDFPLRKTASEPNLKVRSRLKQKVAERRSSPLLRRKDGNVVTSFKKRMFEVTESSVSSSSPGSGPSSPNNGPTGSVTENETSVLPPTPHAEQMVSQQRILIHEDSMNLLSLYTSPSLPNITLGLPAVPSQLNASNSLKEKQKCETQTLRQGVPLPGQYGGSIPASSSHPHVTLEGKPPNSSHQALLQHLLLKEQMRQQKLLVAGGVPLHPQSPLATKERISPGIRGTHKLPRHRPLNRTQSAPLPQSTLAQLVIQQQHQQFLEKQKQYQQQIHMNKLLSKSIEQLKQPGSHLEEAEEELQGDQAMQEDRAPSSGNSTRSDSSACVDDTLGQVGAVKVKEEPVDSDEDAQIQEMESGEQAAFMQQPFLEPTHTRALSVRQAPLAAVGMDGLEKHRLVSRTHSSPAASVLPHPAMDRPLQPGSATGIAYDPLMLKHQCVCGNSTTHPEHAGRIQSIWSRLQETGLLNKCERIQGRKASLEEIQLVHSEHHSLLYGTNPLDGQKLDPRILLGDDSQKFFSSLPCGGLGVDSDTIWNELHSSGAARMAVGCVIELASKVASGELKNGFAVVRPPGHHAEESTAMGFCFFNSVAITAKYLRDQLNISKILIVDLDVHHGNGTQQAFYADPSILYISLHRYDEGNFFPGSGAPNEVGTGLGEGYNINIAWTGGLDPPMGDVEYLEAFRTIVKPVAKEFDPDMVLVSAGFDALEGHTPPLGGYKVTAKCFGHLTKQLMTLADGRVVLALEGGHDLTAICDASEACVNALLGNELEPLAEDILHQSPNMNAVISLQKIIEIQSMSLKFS
HDAC2, sequence (Q92769 whole entry): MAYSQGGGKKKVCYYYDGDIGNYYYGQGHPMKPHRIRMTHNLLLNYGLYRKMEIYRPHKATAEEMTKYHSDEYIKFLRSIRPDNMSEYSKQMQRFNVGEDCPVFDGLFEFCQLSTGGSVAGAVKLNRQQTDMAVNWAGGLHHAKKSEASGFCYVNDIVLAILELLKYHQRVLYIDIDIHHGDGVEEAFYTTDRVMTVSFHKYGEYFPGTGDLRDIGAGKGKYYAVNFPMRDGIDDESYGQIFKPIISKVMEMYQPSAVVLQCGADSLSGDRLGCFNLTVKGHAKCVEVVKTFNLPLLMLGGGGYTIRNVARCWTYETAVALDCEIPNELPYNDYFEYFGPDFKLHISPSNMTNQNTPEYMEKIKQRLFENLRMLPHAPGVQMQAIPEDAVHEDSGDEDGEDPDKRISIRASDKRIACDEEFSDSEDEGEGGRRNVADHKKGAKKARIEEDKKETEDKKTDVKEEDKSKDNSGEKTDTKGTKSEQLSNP
T4 sequence (Q9UQL6 whole entry): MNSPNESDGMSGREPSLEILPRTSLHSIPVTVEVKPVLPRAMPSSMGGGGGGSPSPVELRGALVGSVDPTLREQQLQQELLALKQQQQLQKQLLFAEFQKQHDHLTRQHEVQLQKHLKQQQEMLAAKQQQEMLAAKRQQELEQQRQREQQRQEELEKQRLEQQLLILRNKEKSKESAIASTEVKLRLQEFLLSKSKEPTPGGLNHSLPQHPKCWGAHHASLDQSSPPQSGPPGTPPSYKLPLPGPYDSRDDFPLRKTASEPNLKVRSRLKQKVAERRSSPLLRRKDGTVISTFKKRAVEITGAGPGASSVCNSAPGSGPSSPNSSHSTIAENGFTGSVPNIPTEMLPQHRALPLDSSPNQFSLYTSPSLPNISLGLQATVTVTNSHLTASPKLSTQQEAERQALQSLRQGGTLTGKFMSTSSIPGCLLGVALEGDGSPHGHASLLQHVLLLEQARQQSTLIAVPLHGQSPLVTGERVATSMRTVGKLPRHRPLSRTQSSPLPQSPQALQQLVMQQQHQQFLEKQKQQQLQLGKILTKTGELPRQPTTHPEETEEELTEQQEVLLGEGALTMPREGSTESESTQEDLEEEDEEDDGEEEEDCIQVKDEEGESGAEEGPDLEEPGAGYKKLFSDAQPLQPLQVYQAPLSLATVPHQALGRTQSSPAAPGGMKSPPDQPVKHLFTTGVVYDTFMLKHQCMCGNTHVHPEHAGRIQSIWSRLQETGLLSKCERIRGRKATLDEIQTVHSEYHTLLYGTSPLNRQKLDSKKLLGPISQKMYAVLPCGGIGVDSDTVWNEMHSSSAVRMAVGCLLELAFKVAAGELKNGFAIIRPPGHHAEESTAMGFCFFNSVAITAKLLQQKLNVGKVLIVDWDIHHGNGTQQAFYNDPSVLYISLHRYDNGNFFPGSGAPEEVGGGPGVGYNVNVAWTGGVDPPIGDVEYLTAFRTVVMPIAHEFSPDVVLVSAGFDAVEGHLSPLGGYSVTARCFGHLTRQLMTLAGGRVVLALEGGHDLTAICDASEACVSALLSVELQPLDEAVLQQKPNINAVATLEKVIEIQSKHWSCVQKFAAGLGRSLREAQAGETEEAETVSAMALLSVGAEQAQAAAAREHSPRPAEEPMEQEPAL
T3 sequence (Q9BY41 whole entry): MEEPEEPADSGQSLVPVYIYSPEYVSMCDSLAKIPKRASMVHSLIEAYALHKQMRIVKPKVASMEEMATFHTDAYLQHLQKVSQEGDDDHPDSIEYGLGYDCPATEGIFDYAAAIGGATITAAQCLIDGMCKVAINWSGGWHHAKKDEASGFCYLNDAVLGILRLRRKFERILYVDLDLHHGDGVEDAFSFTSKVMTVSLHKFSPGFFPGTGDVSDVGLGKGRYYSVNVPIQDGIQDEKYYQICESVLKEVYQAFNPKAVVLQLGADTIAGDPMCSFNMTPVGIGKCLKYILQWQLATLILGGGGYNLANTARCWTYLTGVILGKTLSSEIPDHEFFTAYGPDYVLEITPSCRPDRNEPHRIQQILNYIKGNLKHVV
HDAC1, sequence (Q13547 whole entry): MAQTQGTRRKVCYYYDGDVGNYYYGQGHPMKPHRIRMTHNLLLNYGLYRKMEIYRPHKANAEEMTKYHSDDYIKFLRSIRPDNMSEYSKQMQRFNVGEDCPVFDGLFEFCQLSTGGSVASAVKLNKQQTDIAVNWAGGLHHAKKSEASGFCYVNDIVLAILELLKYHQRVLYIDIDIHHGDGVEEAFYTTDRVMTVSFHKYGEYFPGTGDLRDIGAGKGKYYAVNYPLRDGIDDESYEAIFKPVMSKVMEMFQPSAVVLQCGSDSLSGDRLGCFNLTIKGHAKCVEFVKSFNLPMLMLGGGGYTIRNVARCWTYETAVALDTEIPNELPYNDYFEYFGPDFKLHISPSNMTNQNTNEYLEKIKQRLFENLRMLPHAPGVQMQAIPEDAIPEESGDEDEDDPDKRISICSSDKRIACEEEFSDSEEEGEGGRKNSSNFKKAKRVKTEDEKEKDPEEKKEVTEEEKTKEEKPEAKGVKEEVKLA
T5 sequence (Q8WUI4 whole entry): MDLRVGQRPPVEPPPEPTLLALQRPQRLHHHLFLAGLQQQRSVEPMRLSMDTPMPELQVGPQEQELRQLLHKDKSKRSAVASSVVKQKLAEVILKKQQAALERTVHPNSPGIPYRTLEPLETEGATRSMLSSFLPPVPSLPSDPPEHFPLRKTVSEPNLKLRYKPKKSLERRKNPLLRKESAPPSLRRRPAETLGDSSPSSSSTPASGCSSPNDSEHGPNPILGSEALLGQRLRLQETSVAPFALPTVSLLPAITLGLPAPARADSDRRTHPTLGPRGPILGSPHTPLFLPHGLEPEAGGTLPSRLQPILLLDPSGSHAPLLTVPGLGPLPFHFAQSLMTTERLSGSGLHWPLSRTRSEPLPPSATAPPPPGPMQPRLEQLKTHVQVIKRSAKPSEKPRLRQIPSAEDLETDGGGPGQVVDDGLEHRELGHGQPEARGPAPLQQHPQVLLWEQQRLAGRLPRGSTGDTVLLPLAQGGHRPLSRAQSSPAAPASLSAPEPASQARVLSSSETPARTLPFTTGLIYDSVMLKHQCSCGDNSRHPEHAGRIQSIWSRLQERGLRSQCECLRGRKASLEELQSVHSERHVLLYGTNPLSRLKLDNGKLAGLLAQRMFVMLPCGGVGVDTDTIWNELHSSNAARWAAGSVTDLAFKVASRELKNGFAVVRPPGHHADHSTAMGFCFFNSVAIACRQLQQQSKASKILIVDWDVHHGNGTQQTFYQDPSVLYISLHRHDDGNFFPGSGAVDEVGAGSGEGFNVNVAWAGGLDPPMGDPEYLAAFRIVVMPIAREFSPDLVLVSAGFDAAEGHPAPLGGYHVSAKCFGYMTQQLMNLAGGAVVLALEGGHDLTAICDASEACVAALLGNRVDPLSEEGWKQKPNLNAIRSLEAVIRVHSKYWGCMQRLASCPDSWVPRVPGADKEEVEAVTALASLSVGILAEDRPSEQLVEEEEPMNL

As to `Cn1cc(-c2ccc(C(=O)Nc3cc(-c4ccccc4)ccc3N)cc2)c2cc[nH]c2c1=O` [NB503], in assay [1], the “HEXIM1 mRNA levels” value is reported as “strongest effect”.

Take `Cn1cc(-c2ccc(C(=O)Nc3cc(-c4ccccc4)ccc3N)nc2)c2cc[nH]c2c1=O` [NB512]: the remaining activity at 1 µM at HDAC9 (1 µM NB512) came out at 96.2%; on HDAC11 (1 µM NB512, read-out: % Enzyme activity HDAC11), 97.7%; on HDAC8 (1 µM NB512), 96.4%; on HDAC5 (1 µM NB512), 89.3%; on HDAC7 (1 µM NB512), 101%; at HDAC6 (1 µM NB512), 100%. Further, the remaining activity at 1 µM on HDAC2 (1 µM NB512) amounted to 50.3%; at HDAC1 (1 µM NB512), 20.6%; on HDAC3 (1 µM NB512, read-out: % Enzyme activity HDAC3), 95.5%. For the same compound, the remaining activity at 10 µM at HDAC9 (10 µM NB512) was found to be 85%; on HDAC11 (10 µM NB512, read-out: % Enzyme activity HDAC11) it was 59.9%; at HDAC8 (10 µM NB512), 97.9%; on HDAC5 (10 µM NB512), 84.1%; at HDAC7 (10 µM NB512), 101%; on HDAC6 (10 µM NB512), 90.2%. Moreover, the remaining activity at 10 µM at HDAC2 (10 µM NB512) was 13.5%; at HDAC1 (10 µM NB512), 10.3%; on HDAC3 (10 µM NB512, read-out: % Enzyme activity HDAC3), 76.4%. For the same compound, the “% Enzyme activity HDAC11” value on HDAC11 (10 µM NB512) came out at 60%. Besides, in assay [2], the “selectivity among zinc-dependent HDACs” value is “high selectivity for HDAC1/2”. For the same compound, on HDAC3 (10 µM NB512), the “% Enzyme activity HDAC3” value came out at 76%.
